system: panelists; assay: Experiments on cooling properties/intensities: panelists taste aqueous solutions; assay type: in vivo; details: aqueous solution with cooling intensity similar or slightly higher than that of a solution of I-menthol at 2 ppm

Row | Structure (SMILES) | Concentration
1 | COc1ccc(C(=O)N(CCc2ccccn2)c2ccccc2)cc1 [Example 1, 4-Methoxy-N-phenyl-N-[2-(pyridin-2-yl)ethyl]benzamide] | 1.5 ppm
2 | COc1ccc(S(=O)(=O)N(CCc2ccccn2)c2ccccc2)cc1 [Example 2, 4-Methoxy-N-phenyl-N-[2-(pyridin-2-yl)ethyl]benzenesulfonamide] | 2 ppm
3 | O=S(=O)(c1ccc(Cl)cc1)N(CCc1ccccn1)c1ccccc1 [Example 3a, 4-Chloro-N-phenyl-N-[2-(pyridin-2-yl)ethyl]benzenesulfonamide] | 2 ppm
4 | CCNC(=O)C1CC(C)CCC1C(C)C (stereo not shown) [WS-3, N-ethyl p-menthanecarboxamide, reference compound] | 1.5 ppm

Source: patent publication US8263046B2, “N-phenyl-N-pyridinyl-benzamides and benzenesulfonomides having cooling properties” (Givaudan S.A., priority 2005, dated 2012)
